This assay concerns the target T1, VAV1 (Homo sapiens, UniProt P15498+Q96SW2).
T1 construct: A heterozygous VAV1 C-terminal HiBiT knock-in pool was generated at Monte Rosa Therapeutics from a clonal Jurkat cell; endogenous in cells; host or cells: Jurkat clone stably expressing LgBiT, homozygous GSPT1-G575N; heterozygous VAV1-HiBiT knock-in pool
Put plainly: VAV1 degradation activity, VAV1-HiBiT knock-in Jurkat luminescence assay (Example A, Table 1). Format: cell-based. Conditions: VAV1-HiBiT knock-in Jurkat cells, luminescence read at 6 and 24 hours; for Dmax: Jurkat. The essentials:
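Luminescence was measured at 6 and 24 h after adding compound (10 μM stock) to VAV1-HiBiT knock-in Jurkat cells, which had been pre-incubated ~16 h at 37° C. in RPMI/10% FBS containing Endurazine. EC50 values came from control-normalised responses fitted to a 3-parameter logistic model with hillslope fixed at 1.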
On the technique in general: The HiBiT peptide binds its large partner to form an active luciferase.

The mark [1] stands for this setting: read-out: VAV1 DC50 (nM), class.

Read-outs that look alike come from different tables or passages of the source.

By Dmax is commonly meant the largest share of the target that was removed. As usually defined, the DC50 is the midpoint of the concentration-degradation curve. For `O=C1CCC(c2cccc(-c3ccc(N4C(=O)CCCC45CC5)cc3)c2Cl)C(=O)N1` (stereo not shown) [Compound 232, 3-(2-chloro-4′-(5-oxo-4-azaspiro[2.5]octan-4-yl)-[1,1′-biphenyl]-3-yl)piperidine-2,6-dione], the Dmax reads like this: (read-out: VAV1 Dmax %) 98.5%; (read-out: VAV1 Dmax %, class) > 90%. For the same molecule, the DC50 reads like this: (read-out: VAV1 DC50) 2.8 nM; under setting [1], ≤ 100 nM.
For `O=C1CCC(c2cccc(-c3ccc(CC4COC4)cc3)c2Cl)C(=O)N1` (stereo not shown) [Compound 233, 3-(2-chloro-4′-(oxetan-3-ylmethyl)-[1,1′-biphenyl]-3-yl)piperidine-2,6-dione], in that order: 92%, > 90%, 16.1 nM and ≤ 100 nM.
In the same order, the values of `O=C1CCC(c2cccc(-c3ccc(-n4ccccc4=O)cc3)c2F)C(=O)N1` (stereo not shown) [Compound 234, 3-(2-fluoro-4′-(2-oxopyridin-1(2H)-yl)-[1,1′-biphenyl]-3-yl)piperidine-2,6-dione] are 75.8%, 60 to 90%, 127 nM and 100 to 1000 nM.
For `O=C1CCC(c2cccc(-c3ccc(CC(=O)N4CCCC4)cc3)c2Cl)C(=O)N1` (stereo not shown) [Compound 235, 3-(2-chloro-4′-(2-oxo-2-(pyrrolidin-1-yl)ethyl)-[1,1′-biphenyl]-3-yl)piperidine-2,6-dione], in that order: 97.1%, > 90%, 3.87 nM and ≤ 100 nM.
On to `O=C1CCC(c2cccc(-c3ccc(-n4ccc(C(F)(F)F)cc4=O)cc3)c2Cl)C(=O)N1` (stereo not shown) [Compound 236, 3-(2-chloro-4′-(2-oxo-4-(trifluoromethyl)pyridin-1(2H)-yl)-[1,1′-biphenyl]-3-yl)piperidine-2,6-dione], for which the Dmax reads like this: (read-out: VAV1 Dmax %) 93.5%; (read-out: VAV1 Dmax %, class) > 90%. For the same molecule, the DC50 (read-out: VAV1 DC50) is 31.3 nM and the DC50 under setting [1] was ≤ 100 nM.
On to `O=C1CCC(c2cccc(-c3ccc(-n4cc(C(F)(F)F)ccc4=O)cc3)c2Cl)C(=O)N1` (stereo not shown) [Compound 237, 3-(2-chloro-4′-(2-oxo-5-(trifluoromethyl)pyridin-1(2H)-yl)-[1,1′-biphenyl]-3-yl)piperidine-2,6-dione], for which the Dmax by setting is: (read-out: VAV1 Dmax %) 92.7%; (read-out: VAV1 Dmax %, class) > 90%. Besides, the DC50 reads like this: (read-out: VAV1 DC50) 35.8 nM; under setting [1], ≤ 100 nM.
In the same order, the values of `O=C1CCC(c2cccc(-c3ccc(-n4c(C(F)F)cccc4=O)cc3)c2Cl)C(=O)N1` (stereo not shown) [Compound 238, 3-(2-chloro-4′-(6-(difluoromethyl)-2-oxopyridin-1(2H)-yl)-[1,1′-biphenyl]-3-yl)piperidine-2,6-dione] are 98.7%, > 90%, 2.24 nM and ≤ 100 nM.
For `O=C1CCC(c2cccc(-c3ccc(Cn4ccccc4=O)cc3)c2)C(=O)N1` (stereo not shown) [Compound 239, 3-(4′-((2-oxopyridin-1(2H)-yl)methyl)-[1,1′-biphenyl]-3-yl)piperidine-2,6-dione], in that order: 63.4%, 60 to 90%, 341 nM and 100 to 1000 nM.
For `Cc1c(-c2ccc(-n3ccccc3=O)cc2)cccc1C1CCC(=O)NC1=O` (stereo not shown) [Compound 240, 3-[2-methyl-3-[4-(2-oxo-1-pyridyl)phenyl]phenyl]piperidine-2,6-dione], in that order: 94.4%, > 90%, 77.1 nM and ≤ 100 nM.
`O=C1CCC(c2cccc(-c3ccc(C4(n5ccccc5=O)CC4)cc3)c2Cl)C(=O)N1` (stereo not shown) [Compound 241, 3-[2-chloro-3-[4-[1-(2-oxo-1-pyridyl)cyclopropyl]phenyl]phenyl]piperidine-2,6-dione]: the Dmax is, setting by setting: (read-out: VAV1 Dmax %) 77%; (read-out: VAV1 Dmax %, class) 60 to 90%. Also, the DC50 was 920 nM (read-out: VAV1 DC50) and 100 to 1000 nM under setting [1].
For `O=C1CCC(c2cccc(-c3ccc(-n4c(F)cccc4=O)cc3)c2Cl)C(=O)N1` (stereo not shown) [Compound 242, 3-(2-chloro-4′-(6-fluoro-2-oxopyridin-1(2H)-yl)-[1,1′-biphenyl]-3-yl)piperidine-2,6-dione], in that order: 91.5%, > 90%, 68.4 nM and ≤ 100 nM.
For `Cc1c(-c2ccc(Cn3ccccc3=O)cc2)cccc1C1CCC(=O)NC1=O` (stereo not shown) [Compound 243, 3-[2-methyl-3-[4-[(2-oxo-1-pyridyl)methyl]phenyl]phenyl]piperidine-2,6-dione], in that order: 56.8%, < 60%, 4220 nM and > 1000 nM.
`O=C1CCC(c2cccc(-c3ccc(N4C(=O)CCCC4C(F)(F)F)cc3)c2Cl)C(=O)N1` (stereo not shown) [Compound 244, 3-(2-chloro-4′-(2-oxo-6-(trifluoromethyl)piperidin-1-yl)-[1,1′-biphenyl]-3-yl)piperidine-2,6-dione]: the Dmax is 96.5% (read-out: VAV1 Dmax %) and > 90% (read-out: VAV1 Dmax %, class). The DC50 is, setting by setting: (read-out: VAV1 DC50) 8.36 nM; under setting [1], ≤ 100 nM.
For `O=C1CCC(c2cccc(-c3ccc(-n4ccc(F)cc4=O)cc3)c2Cl)C(=O)N1` (stereo not shown) [Compound 245, 3-[2-chloro-3-[4-(4-fluoro-2-oxo-1-pyridyl)phenyl]phenyl]piperidine-2,6-dione], in that order: 95.2%, > 90%, 17.5 nM and ≤ 100 nM.
For `O=C1CCC(c2cccc(-c3ccc(-n4cc(F)ccc4=O)cc3)c2Cl)C(=O)N1` (stereo not shown) [Compound 246, 3-(2-chloro-4′-(5-fluoro-2-oxopyridin-1(2H)-yl)-[1,1′-biphenyl]-3-yl)piperidine-2,6-dione], in that order: 94.3%, > 90%, 17.5 nM and ≤ 100 nM.
For `CN1CCCN(c2ccc(-c3cccc(C4CCC(=O)NC4=O)c3Cl)cc2)C1=O` (stereo not shown) [Compound 247], in that order: 95.4%, > 90%, 5.38 nM and ≤ 100 nM.
On to `O=C1CCC(c2cccc(-c3ccc(NC(=O)N4CCCC4)cc3)c2Cl)C(=O)N1` (stereo not shown) [Compound 248, N-(2′-chloro-3′-(2,6-dioxopiperidin-3-yl)-[1,1′-biphenyl]-4-yl)pyrrolidine-1-carboxamide], for which the Dmax runs as follows: (read-out: VAV1 Dmax %) 84.4%; (read-out: VAV1 Dmax %, class) 60 to 90%. Also, the DC50 runs as follows: (read-out: VAV1 DC50) 26.3 nM; under setting [1], ≤ 100 nM.
For the molecule `Cn1ccc(CCc2ccc(-c3cccc(C4CCC(=O)NC4=O)c3Cl)cn2)n1` (stereo not shown) [Compound 249, 3-(2-chloro-3-(6-(2-(1-methyl-1H-pyrazol-3-yl)ethyl)pyridin-3-yl)phenyl)piperidine-2,6-dione], the Dmax reads like this: (read-out: VAV1 Dmax %) 48.9%; (read-out: VAV1 Dmax %, class) < 60%. The DC50 by setting is: (read-out: VAV1 DC50) 7400 nM; under setting [1], > 1000 nM.
In the same order, the values of `Cn1ccc(COc2ccc(-c3cccc(C4CCC(=O)NC4=O)c3Cl)cn2)n1` (stereo not shown) [Compound 251, 3-(2-chloro-3-(6-((1-methyl-1H-pyrazol-3-yl)methoxy)pyridin-3-yl)phenyl)piperidine-2,6-dione] are 73.8%, 60 to 90%, 354 nM and 100 to 1000 nM.
For `O=C1CCC(c2cccc(-c3ccc(CN4CCc5ocnc5C4=O)cc3)c2Cl)C(=O)N1` (stereo not shown) [Compound 252], in that order: 82.8%, 60 to 90%, 54.8 nM and ≤ 100 nM.
As for `O=C1CCC(c2cccc(-c3ccc(CN4C(=O)CCn5nccc54)cc3)c2Cl)C(=O)N1` (stereo not shown) [Compound 253], the Dmax was 87.7% (read-out: VAV1 Dmax %) and 60 to 90% (read-out: VAV1 Dmax %, class). The DC50 was 29.6 nM (read-out: VAV1 DC50) and ≤ 100 nM under setting [1].
In the same order, the values of `CC1Oc2ccncc2N(Cc2ccc(-c3cccc(C4CCC(=O)NC4=O)c3Cl)cc2)C1=O` (stereo not shown) [Compound 254] are 96.2%, > 90%, 11.2 nM and ≤ 100 nM.
In the same order, the values of `CN1CC(=O)N(Cc2ccc(-c3cccc(C4CCC(=O)NC4=O)c3Cl)cc2)c2cccnc21` (stereo not shown) [Compound 255] are 89.5%, 60 to 90%, 11 nM and ≤ 100 nM.
In the same order, the values of `CN1CC(=O)N(Cc2ccc(-c3cccc(C4CCC(=O)NC4=O)c3Cl)cc2)c2cnccc21` (stereo not shown) [Compound 256] are 75.8%, 60 to 90%, 213 nM and 100 to 1000 nM.
Regarding `CN1CC(=O)N(Cc2ccc(-c3cccc(C4CCC(=O)NC4=O)c3Cl)cc2)CC1(C)C` (stereo not shown) [Compound 257], the Dmax runs as follows: (read-out: VAV1 Dmax %) 94.2%; (read-out: VAV1 Dmax %, class) > 90%. For the same molecule, the DC50 (read-out: VAV1 DC50) turned out to be 9.66 nM and the DC50 under setting [1] was ≤ 100 nM.
For `O=C1CCC(c2cccc(-c3ccc(CN4CC(C(F)(F)F)OCC4=O)cc3)c2Cl)C(=O)N1` (stereo not shown) [Compound 258], the Dmax is 94.5% (read-out: VAV1 Dmax %) and > 90% (read-out: VAV1 Dmax %, class). Further, the DC50 reads like this: (read-out: VAV1 DC50) 12.6 nM; under setting [1], ≤ 100 nM.
`CN1CC(=O)N(Cc2ccc(-c3cccc(C4CCC(=O)NC4=O)c3Cl)cc2)CC12COC2` (stereo not shown) [Compound 259]: the Dmax was 90% (read-out: VAV1 Dmax %) and > 90% (read-out: VAV1 Dmax %, class). The DC50 is, setting by setting: (read-out: VAV1 DC50) 28.1 nM; under setting [1], ≤ 100 nM.
As to `O=C1CCC(c2cccc(-c3ccc(CN4CC5CCCN5CC4=O)cc3)c2Cl)C(=O)N1` (stereo not shown) [Compound 260], the Dmax is, setting by setting: (read-out: VAV1 Dmax %) 83.9%; (read-out: VAV1 Dmax %, class) 60 to 90%. The DC50 is 193 nM (read-out: VAV1 DC50) and 100 to 1000 nM under setting [1].

(Values after patent US12257247B2 (Monte Rosa Therapeutics AG, priority 2023, dated 2025).)
